Data on 1 molecule can be found in BindingDB's records for doi:10.1016/j.chembiol.2006.05.008 (Gpc Biotech, 2006).

The target in the assay is Cyclin-dependent kinase 2 (Homo sapiens, UniProt P24941). The experiment in a line: Enzymatic Assay.

Protocol: CAII assays were performed at CEREP (paris). All other kinase assays were performed at Upstate (Dundee, UK).

By EC50 is commonly meant the concentration needed to bring the measured effect to its halfway point. High values mean lower potency in that assay, low ones higher potency in that assay. As a reminder, the IC50 is the concentration that inhibits the measured activity by half. A higher IC50 goes with weaker potency. In the case of `CC(C)c1nn(-c2c(Cl)cc(Cl)cc2Cl)c2nc(Cc3ccc(OC(C)(C)C(=O)O)cc3)[nH]c(=O)c12` [RGB-285961], the EC50 worked out at 70 nM and the IC50 was 20 nM.
